From ChEMBL document CHEMBL1128430, “1,1-Bisphosphonate squalene synthase inhibitors: interplay between the isoprenoid subunit and the diphosphate surrogate” (J Med Chem, 1995) come the findings set out here.

Active and inactive are the calls of the source. No cut-off for these calls is given here.

For one test, the target named is T1, Squalene synthase (Rattus norvegicus, UniProt Q02769).
T1 sequence (Q02769 whole entry): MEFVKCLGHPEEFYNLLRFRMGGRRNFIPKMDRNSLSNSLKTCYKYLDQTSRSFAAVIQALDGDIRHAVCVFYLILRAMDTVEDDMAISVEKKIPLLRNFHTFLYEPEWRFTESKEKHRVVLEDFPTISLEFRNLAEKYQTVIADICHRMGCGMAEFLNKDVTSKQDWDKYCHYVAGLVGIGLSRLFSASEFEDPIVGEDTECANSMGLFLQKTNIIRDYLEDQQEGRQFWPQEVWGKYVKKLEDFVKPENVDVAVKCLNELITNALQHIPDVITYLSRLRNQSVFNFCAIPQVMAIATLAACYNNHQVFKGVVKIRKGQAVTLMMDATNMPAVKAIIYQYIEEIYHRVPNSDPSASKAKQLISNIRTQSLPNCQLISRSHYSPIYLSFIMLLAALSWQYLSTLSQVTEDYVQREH
In words: Inhibition rat liver microsomal squalene synthase.

Test [1] addresses T2, Squalene synthase (Rattus norvegicus) (UniProt Q02769).
T2 sequence (whole entry): T1 sequence (Q02769 whole entry)
In words: Effective dose to inhibit rat liver microsomal Squalene Synthase was determined by intravenous administration.

Test [2] concerns the target T2, Squalene synthase (Rattus norvegicus). In words: Effective dose to inhibit rat liver microsomal Squalene Synthase was determined by peroral administration at 15 mg/kg dose. The format is organism-based. Also noted: dose 15 mg/kg.
The target is the same in test [3]. Briefly: Effective dose to inhibit rat liver microsomal Squalene Synthase was determined by peroral administration at a dose of 30 mg/kg; In active. The format is organism-based. Also noted: dose 30 mg/kg.
Test [4] has the same target. Briefly: Effective dose to inhibit rat liver microsomal Squalene Synthase was determined by peroral administration.
Test [5] has the same target. The following applies: 30 mg/kg.
The target is the same in test [6]. In words: Effective dose to inhibit rat liver microsomal Squalene synthase was determined by peroral administration at a dose of 15 mg/kg; inactive. The format is organism-based. Also noted: dose 15 mg/kg.

Regarding `CC(C)=CCC/C(C)=C/CCC(P(=O)(O)O)P(=O)(O)O`, the IC50 against Squalene synthase amounted to 77.7 nM.

Turning to `CC(C)=CCC/C(C)=C/CC(P(C)(=O)O)P(=O)(O)O` (configuration not stated), the concentration for half-maximal inhibition (IC50) against Squalene synthase came to 8600 nM. Still for that read-out and setting: as for `CC(C)=CCC/C(C)=C/CC/C(C)=C/CC(P(=O)(O)O)P(=O)(O)O`, the figure is 32.4 nM. Take `CC(C)=CCC/C(C)=C/CC/C(C)=C/CCCCCCC(P(=O)(O)O)P(=O)(O)O`: in test [1], it took a dose of 0.13 mg/kg to reach the 50% effect level (ED50). This molecule also registered an IC50 against Squalene synthase of 11.8 nM. The inhibition in test [2] is 26%. On Squalene synthase, `CC(C)=CCC/C(C)=C/CCCCCCCC(P(C)(=O)O)P(=O)(O)O` (configuration not stated) registered a concentration for half-maximal inhibition (IC50) of 8.7 nM. Take `CC(C)=CCC/C(C)=C/CCCC(C(=O)O)P(=O)(O)O` (configuration not stated): inhibition on Squalene synthase was half-maximal at 1650 nM (IC50). On the same count and under the same terms, the figure for `CC(C)=CCC/C(C)=C/CCCC(P(=O)(O)O)P(=O)(O)CO` (configuration not stated) is 38.7 nM; for `CC(C)=CCC/C(C)=C/CC/C(C)=C/CCCC(P(C)(=O)O)P(=O)(O)O` (configuration not stated) it is 12.9 nM. Regarding `COCP(=O)(O)C(CCCc1ccc(-c2ccccc2)cc1)P(=O)(O)O` (configuration not stated), on Squalene synthase, the half-inhibitory concentration (IC50) was found to be 14.8 nM. `CC(C)=CCC/C(C)=C/CCCCCCCC(P(=O)(O)O)P(=O)(O)O`: the ED50 in test [1] amounted to 0.05 mg/kg. The ED50 entry in test [3] was “inactive”. The same molecule displayed an IC50 on Squalene synthase of 4.2 nM. Regarding `O=C(O)C(CCCc1ccc(-c2ccccc2)cc1)P(=O)(O)O` (configuration not stated), the IC50 at Squalene synthase worked out at 2200 nM.

In turn, `CC(C)=CCC/C(C)=C/CCCC([PH](=O)O)P(=O)(O)O` (configuration not stated) showed an IC50 against Squalene synthase of 4 nM. The same measure, in the same setting: as for `CP(=O)(O)C(CCCc1ccc(-c2ccccc2)cc1)P(=O)(O)O` (configuration not stated), the figure is 490 nM; as for `CC(C)=CCC/C(C)=C/CC/C(C)=C/CC(P(C)(=O)O)P(=O)(O)O` (configuration not stated), 106 nM; as for `CC(C)=CCC/C(C)=C/CCCCC(P(=O)(O)O)P(=O)(O)O`, 2.6 nM. On the same count and under the same terms, the figure for `CC(C)=CCC/C(C)=C/CCCCCCC(P(C)(=O)O)P(=O)(O)O` (configuration not stated) is 374 nM; for `CC(C)=CCC/C(C)=C/CCCCC(P(C)(=O)O)P(=O)(O)O` (configuration not stated) it is 605 nM; for `CC(C)=CCC/C(C)=C/CC/C(C)=C/CCCC(C(=O)O)P(=O)(O)O` (configuration not stated) it is 880 nM.

`CC(C)=CCC/C(C)=C/CCCCCC(P(C)(=O)O)P(=O)(O)O` (configuration not stated): at Squalene synthase, it took 30.7 nM to reach half-maximal inhibition (IC50).

For `CC(C)=CCCCC(P(=O)(O)O)P(=O)(O)O`, the half-maximal inhibitory concentration (IC50) against Squalene synthase amounted to 6600 nM.

Regarding `CC(C)=CCC/C(C)=C/CCCCCC(P(=O)(O)O)P(=O)(O)O`, the ED50 in test [1] was 0.04 mg/kg; in test [4], 1.1 mg/kg. For the same molecule, the IC50 on Squalene synthase came out at 2.5 nM.

Take `CC(C)=CCC/C(C)=C/CCCCCCC(P(=O)(O)O)P(=O)(O)O`: the midpoint of inhibition against Squalene synthase, the IC50, lay at 17.6 nM. In test [5], this molecule gave an inhibition of 25%.

Molecule `COCP(=O)(O)C(CCC/C=C(\C)CCC=C(C)C)P(=O)(O)O` (configuration not stated) yielded an IC50 against Squalene synthase of 13.1 nM. The same measure, in the same setting: the figure for `CC(C)=CCC/C(C)=C/CCCC(P(C)(=O)O)P(=O)(O)O` (configuration not stated) is 81 nM; for `O=P(O)(O)C(CCCc1ccc(-c2ccccc2)cc1)P(=O)(O)CO` (configuration not stated) it is 23.9 nM. Same read-out and setting: as for `CC(C)=CCC/C(C)=C/CC/C(C)=C/CCCCC(P(C)(=O)O)P(=O)(O)O` (configuration not stated), the figure is 6.5 nM. Regarding `CC(C)=CCC/C(C)=C/CC(P(=O)(O)O)P(=O)(O)O`, the ED50 result in test [6] was “inactive”. The IC50 against Squalene synthase was determined as 35.5 nM. Consider `CC(C)=CCC/C(C)=C/CC/C(C)=C/CCCC(P(=O)(O)O)P(=O)(O)CO` (configuration not stated), for which, on Squalene synthase, the half-inhibitory concentration (IC50) was 4.7 nM. Same read-out and setting: the figure for `COCP(=O)(O)C(CCC/C=C(\C)CC/C=C(\C)CCC=C(C)C)P(=O)(O)O` (configuration not stated) is 6.5 nM.
